Earlier results, collected in US20200206299A1, “INHIBITORS OF BETA-ARRESTIN-NEUROKININ 1 RECEPTOR INTERACTIONS FOR THE TREATMENT OF PAIN” (priority 2016, published 2020).

System: capsaicin-evoked hyperalgesia
Conditions: intrathecal MEK inhibitor; Ji et al. 2002 is cited

N#CC(=C(/N)Sc1ccccc1N)/C(C#N)=C(\N)Sc1ccccc1N [U0126]
capsaicin-evoked hyperalgesia: inhibited
